The results in this text go back to patent US20120220577A1, “GLYCINE B ANTAGONISTS” (Merz Pharma GmbH & Co KgaA, priority 2009, published 2012).

Assay [1] concerns the target NMDA receptor glycine B site (Rattus norvegicus, UniProt P35439). Briefly: Whole cell patch-clamp recordings, rat hippocampal neurons (NMDA/D-Serine currents). The assay is classed as cell-based. As to conditions: NMDA 200 μM + D-Serine 1 μM, -70 mV, read-out: NMDA-PC-r-HIC-NAM - IC50. On the procedure: Antagonistic potencies of the test compounds are functionally evaluated using electrophysiological whole cell patch-clamp recordings and/or fluorometric intracellular Ca^2+-imaging (FLIPR) screens.
Cell preparation is performed as described by Parsons, et al. (Neuropharmacology, 1998, 37(6), 719-727). The female Sprague-Dawley rat is anaesthetised by placing in a saturated CO2-euthanasia chamber under further quiet CO2-influx. Under these conditions the rat loses consciousness after a few seconds and is then sacrificed by cervical dislocation. After opening the abdominal cavity, embryos (E20) are removed and stored in ice cold Ca^2+- and Mg^2+-free Hank's Buffered Salt Solution (pH 7.3), containing 4 g/l glucose (HBSS-CMF). Hippocampi are then isolated from the brains of at least 8 embryos after decapitation, transferred into ice cold HBSS-CMF and washed 3 to 4 times.
Hippocampi are pre-incubated for 8 min with a 0.66% trypsin (Sigma-Aldrich) and 0.1% (20 U/ml) DNAase solution (Sigma-Aldrich) in Ca^2+-free Phosphate Buffered Saline (PBS-CF) and washed 3 times with HBSS-CMF. Cells are then mechanically dissociated by trituration in a PBS-CF solution containing 0.05% (10 U/ml) DNAase and 0.3% of the trypsin inhibitor ovomucoid (all from Sigma-Aldrich). The cells are then centrifuged at 180×g for 10 minutes, and the cell pellet re-suspended in basal Minimum essential medium (MEM, Invitrogen, Karlsruhe, Germany), again carefully triturated to ensure maximal dissociation and finally plated in the flexiPERM inserts (Thermo Fisher Scientific, Langenselbold, Germany) at a density of 15×10^3 cells/cm^2 (0.5 ml/insert) onto poly-DL-ornithine (Sigma) and mouse laminin (Invitrogen) pre-coated plastic petri dishes. After 1 hour the cells become attached to the bottom of the dish and the inserts may be removed. The cells are then nourished with 2 ml MEM supplemented with 5% foetal calf serum (FCS) and 5% horse serum and incubated at 37° C. with 95% air and 5% CO2 at 95% humidity. After 4 days in vitro (DIV) further glial mitosis is inhibited by adding 10 μl of AraC (5 μM endconcentration). The medium is completely exchanged after an additional 2 DIV and again, but only partly (50%), after 8 DIV. The cells are used for electrophysiological recordings after 11-15 DIV.
Cells are visualised using an inverted microscope and selected for patching based upon their position and morphology. Voltage clamp recordings are made in the whole cell configuration of the patch clamp technique at a holding potential of −70 mV with the aid of an EPC-10 amplifier in combination with pipette manipulator. Patch clamp pipettes are pulled from borosilicate glass using a horizontal puller (P-97 Puller, Sutter Instruments, USA) and, when filled with intracellular solution, have resistances of 1-4 MΩ.
Solutions are delivered via a home-made gravity driven very fast perfusion system (<10 ms) including valves to switch flow on and off in combination with a stepper motor-driven double-barrelled theta glass application pipette in order to expose cells to either agonist-free or agonist-containing solutions in presence or absence of antagonist.
The intracellular solution used consists of: 120 mM CsCl, 10 mM EGTA, 1 mM MgCl2, 200 μM CaCl2, 10 mM glucose and 22 mM tetraethyl ammonium chloride (TEA-CL). The corresponding extracellular bath solution contains: 140 mM NaCl, 3 mM KCl, 10 mM glucose, 10 mM HEPES, 1.5 mM CaCl2 and 4.5 mM sucrose (all from Sigma-Aldrich) pH 7.3, and is supplemented with 0.3 μM tetrodotoxin (TTX, Tocris, Bristol, U.K.) to block voltage-activated sodium channels and 0.25 μM bicuculline (Sigma-Aldrich) to block GABAA receptors. […]
Background: In patch-clamp work, channel activity is measured electrically.

The target of assay [2] is T1, glycine binding pocket of the NMDA receptor (Rattus norvegicus, UniProt P35439).
T1 construct: For isolation of the cell membranes, the cortices are homogenized; from tissue; host or cells: rat cerebral cortex membranes (male Sprague-Dawley)
Kind of assay: [3H]MDL-105,519 displacement studies (rat cortical membranes). Particulars: displacement of 2 nM [3H]-MDL-105,519, rat cortical membranes; read-out: NMDA-MDL 105519-r-CTX - IC50.

A word on the IC50: it is the point on the concentration scale where inhibition reaches its midpoint.

Molecules are shown by their SMILES.

Regarding `O=C(COc1cc(C(=O)O)cc2cc(Cl)cc(Cl)c12)Nc1cccc(OCC(=O)N2CCOCC2)c1` [Example 47, 5,7-Dichloro-4-{[3-(2-morpholin-4-yl-2-oxo-ethoxy)-phenylcarbamoyl]-methoxy}-naphthalene-2-carboxylic acid], the IC50 in assay [1] is 87 nM; in assay [2] it was 218 nM.
`O=C(COc1cc(C(=O)O)cc2cc(Cl)cc(Cl)c12)Nc1ccc(O)cc1` [Example 8, 5,7-Dichloro-4-[(4-hydroxyphenylcarbamoyl)-methoxy]-naphthalene-2-carboxylic acid]: the IC50 in assay [1] is 287 nM; in assay [2], 1850 nM.
